Measured values as given in US12459891B2, “1-[1-(4-benzyloxy-3,5-difluoro-benzoyl)-4-fluoro-pyrrolidine-2-carbonyl]-pyrrolidine-2-carbonitrile” (ACCURE THERAPEUTICS, S.L., priority 2020, dated 2025).

Key:
MK-801-treated mice = assay: Novel object recognition (NOR) task, MK-801-induced cognitive deficit; format: in vivo, male C57/Bl6 mice; settings: for % discrimination index: mean ± s.e.m.
[1] = target: T1, human prolyl oligopeptidase (Homo sapiens, UniProt P48147); assay: POP inhibition assay (Z-G-P-AMC substrate, fluorimetric); format: biochemical; settings: hPOP 20 to 60 nM, 15 min preincubation, 1 hour at 37° C., pH 8.0
T1 construct: His tail; made in house; host or cells: E. coli BL21
T1 sequence (P48147 1-710): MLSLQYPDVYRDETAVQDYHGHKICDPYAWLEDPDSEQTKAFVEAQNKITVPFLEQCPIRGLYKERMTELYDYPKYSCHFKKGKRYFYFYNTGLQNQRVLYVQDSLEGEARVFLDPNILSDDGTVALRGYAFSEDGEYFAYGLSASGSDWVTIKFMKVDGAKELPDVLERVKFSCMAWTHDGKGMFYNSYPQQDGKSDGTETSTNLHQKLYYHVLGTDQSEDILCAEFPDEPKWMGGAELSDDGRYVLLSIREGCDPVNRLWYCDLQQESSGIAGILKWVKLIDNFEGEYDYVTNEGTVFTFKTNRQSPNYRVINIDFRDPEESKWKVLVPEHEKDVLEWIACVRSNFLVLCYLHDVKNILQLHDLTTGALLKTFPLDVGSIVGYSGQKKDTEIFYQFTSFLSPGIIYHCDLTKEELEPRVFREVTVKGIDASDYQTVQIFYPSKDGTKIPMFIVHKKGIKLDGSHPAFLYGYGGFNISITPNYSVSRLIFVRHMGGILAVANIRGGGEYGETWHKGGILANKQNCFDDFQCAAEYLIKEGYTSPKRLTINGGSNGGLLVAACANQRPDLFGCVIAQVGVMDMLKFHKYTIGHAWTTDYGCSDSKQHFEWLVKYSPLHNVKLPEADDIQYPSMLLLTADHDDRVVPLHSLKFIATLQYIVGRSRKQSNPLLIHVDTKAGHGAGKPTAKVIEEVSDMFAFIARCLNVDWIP
Description: POP was obtained by expression in E. coli and affinity purification using a His tail fusion according to a literature procedure (Tarragó T et al., Chem Bio Chem 2006; 7:827-33) summarized below:
hPOP expression: E. coli BL21 competent cells were transformed with pETM10 hPOP. To induce expression, a pre-culture of LB medium (50 mL) containing kanamycin (50 μg/mL) was inoculated with one colony and was grown overnight at 37° C. Next day, two cultures of LB medium (500 mL) were inoculated with the overnight culture (10 mL). The inoculated cultures were grown at 37° C. and 220 rpm until the OD595 was 1.2 (2.5-3 hours). […] The column was washed with suspension buffer until the absorbance at 280 nm returned to basal level. […] POP activity was checked in all fractions and positive ones were analyzed by SDS-PAGE and stained with Biosafe Comassie Stain G-250. […] Recombinant hPOP was quantified with the Bio-Rad Protein Assay with BSA as standard. […]
POP activity was determined following the method described by Toide et al (Toide K et al., J. Pharmacol. Exp. Ther. 1995; 274:1370-8), using Z-G-P-AMC (N-benzyloxycarbonyl-Gly-Pro-methylcoumarinyl-7-amide) as POP substrate. […]
Several concentration points (ranging from 25 μM to 400 μM) were measured for each compound. The inhibitory activity on prolyl oligopeptidase was calculated according to eq 1. […]

[2] = compound 5 mg/kg intraperitoneal 35 min before test + MK 801 0.2 mg/kg sc
[3] = compound 5 mg/kg oral (po) 35 min before test + MK 801 0.2 mg/kg sc

| Structure (SMILES) | % discrimination index (MK-801-treated mice; [2]) [%] | % discrimination index (MK-801-treated mice; [3]) [%] | Efficacy after oral administration (in words) (MK-801-treated mice; oral administration) | IC50 [1] [µM] |
| --- | --- | --- | --- | --- |
| COc1cc(C(=O)N2CC(F)(F)C[C@H]2C(=O)N2CCC[C@H]2C#N)cc(OC)c1OCc1ccccc1 [Comp Ex. 3, (S)-1-((2S)-1-(4-(benzyloxy)-3,5-dimethoxybenzoyl)-4,4-difluoropyrrolidine-2-carbonyl)pyrrolidine-2-carbonitrile] | 42.7 ± 3.3 | 20.1 ± 2.9 | no efficacy | – |
| N#C[C@@H]1CCCN1C(=O)[C@@H]1C[C@@H](F)CN1C(=O)c1cc(F)c(OCc2ccccc2)c(F)c1 [Example 1, (S)-1-((2S,4R)-1-(4-(benzyloxy)-3,5-difluorobenzoyl)-4-fluoropyrrolidine-2-carbonyl)pyrrolidine-2-carbonitrile] | 30.3 ± 3.9 | 42.1 ± 5.1 | – | 0.045 |
| N#C[C@@H]1CCCN1C(=O)[C@@H]1CC(F)(F)CN1C(=O)c1ccc(OCc2ccccc2)c(F)c1 [Comp Ex. 4, (S)-1-((S)-1-(4-(benzyloxy)-3-fluorobenzoyl)-4,4-difluoropyrrolidine-2-carbonyl) pyrrolidine-2-carbonitrile] | – | – | – | 0.365 |
